Source: PMC3863970 (Nature Communications, 2013)
“Also recorded” adds a separate entry of the source.

How the values were obtained:
rSH/1 virus = system: rSH/1 virus; set-up: species or system influenza A(H7N9) virus; settings: in vivo
rSH/1:AH/1-NA virus = system: rSH/1:AH/1-NA virus; set-up: species or system influenza A(H7N9) virus; settings: in vivo

Structure (SMILES)	effect on viral lung titres (rSH/1 virus; po)	reduction in viral lung titres (rSH/1:AH/1-NA virus; po)	viral lung titres compared with mice treated with vehicle only (rSH/1 virus)	viral lung titres compared with mice treated with vehicle only (rSH/1:AH/1-NA virus)
CCOC(=O)C1=C[C@@H](OC(CC)CC)[C@H](NC(C)=O)[C@@H](N)C1 [Oseltamivir, oseltamivir]	no effect; also recorded: does not suppress H7N9 virus replication	1 log	–	–
CC(=O)N[C@H]1[C@H]([C@H](O)[C@H](O)CO)OC(C(=O)O)=C[C@@H]1N=C(N)N [Zanamivir, zanamivir]	–	–	significantly reduced	significantly reduced
